Source: patent publication US5147878A, “Aminoalkoxyphenyl derivatives, process of preparation and compositions containing the same” (Sanofi, priority 1986, dated 1992)
Where a name gives a salt, the structure may show the parent alone.

How the values were obtained:
[1] = test system: isoprenaline-induced acceleration in heart rate (anti-β effect); assay: Antiadrenergic properties: anti-β effect (reduction of isoprenaline-induced tachycardia); format: in vivo; parameters: key to anti-β effect: +: for a reduction < 50%; ++: for a reduction ≥ 50%; +++: for a reduction sub-total (almost complete reduction); conditions: dog
Method: The object of this test is to determine the capacity of the compounds of the invention for reducing the increase in epinephrine-induced increase in blood-pressure (anti-α effect) and the isoprenaline-induced acceleration in heart rate (anti-β effect), in dogs previously anaesthatized with pentobarbital and atropinized. For each dog, the dose of epinephrine (between 3 and 10 μg/kg) which induced a reproducible increase in the blood-pressure of approximately 133×10^2 Pa and the dose of isoprenaline (1 to 2 μg/kg) which induced a reproducible increase in the heart rate of approximately 70 beats/min. were first determined. The dose of epinephrine and of isoprenaline, determined in this manner, were injected alternately every ten minutes and, after two successive reference responses had been obtained, an amount of the test compound was administered intravenously. The percentage reduction in the acceleration of the heart rate induced by the test compound compared with the reference tachycardia measured previously (approximately 70 beats) was recorded. In both cases, the results of the reduction in blood-pressure or in the heart rate have been expressed as follows: […]

[2] = test system: epinephrine-induced increase in blood-pressure (anti-α effect); assay: Antiadrenergic properties: anti-α effect (reduction of epinephrine-induced hypertension); format: in vivo; parameters: key to anti-α effect: +: for a reduction < 50%; ++: for a reduction ≥ 50%; +++: for a reduction sub-total (almost complete reduction); conditions: 0.1 mg/kg i.v., dog
Method: The object of this test is to determine the capacity of the compounds of the invention for reducing the increase in epinephrine-induced increase in blood-pressure (anti-α effect) and the isoprenaline-induced acceleration in heart rate (anti-β effect), in dogs previously anaesthatized with pentobarbital and atropinized. For each dog, the dose of epinephrine (between 3 and 10 μg/kg) which induced a reproducible increase in the blood-pressure of approximately 133×10^2 Pa and the dose of isoprenaline (1 to 2 μg/kg) which induced a reproducible increase in the heart rate of approximately 70 beats/min. were first determined. The dose of epinephrine and of isoprenaline, determined in this manner, were injected alternately every ten minutes and, after two successive reference responses had been obtained, an amount of the test compound was administered intravenously. The percentage reduction in the hypertension induced by the test compound compared with the reference hypertension previously obtained (approximately 100 mm Hg) was recorded. In both cases, the results of the reduction in blood-pressure or in the heart rate have been expressed as follows: […]

[3] = test system: isolated rat aorta; assay: Calcium inhibitory properties: contractile response to potassium-induced depolarization on isolated rat aorta; parameters: species or system isolated organ, male Wistar rats; conditions: for activity at 0.01 µM / activity at 1 µM / activity at 0.1 µM / activity at 0.001 µM: Rattus norvegicus, 1 h, read-out: % of the maximum contractional effect; for activity at 1 µM: 10^-6 M; for activity at 0.1 µM: 10^-7 M; for % of the maximum contractional effect: 60 min
Source text: It is well established that the depolarization of a smooth muscle membrane by potassium renders the latter permeable to extracellular calcium and induces muscle contraction. Consequently, the measurement of the inhibition of the contractile response to depolarization by potassium, or the measurement of a relaxation of the tonic contraction on potassium depolarization, can represent an evaluation of the power of a compound as an inhibitor of the membrane permeability to Ca^++ ions. The technique used was as follows: The aorta was removed from male Wistar rats weighing approximately 300 g, and cut into strips approximately 40 mm long and 3 mm wide. These fragments were placed in a 25-ml isolated organ trough containing a modified Krebs-bicarbonate solution (112 mM NaCl; 5 mM KCl; 25 mM NaHCO3; 1 mM KH2 PO4; 1.2 mM MgSO4; 2.5 mM CaCl2; 11.5 mM glucose, distilled water to 1000 ml) through which a stream of 5-7% carbon dioxide in oxygen was passed, and maintained at 37° C. The preparation was connected to a force microsensor and the contractile response recorded after amplification on a recorder. A tension of 2 g was applied to the preparation. This tension was maintained for 60 minutes in the modified Krebs-bicarbonate solution, and contractions were then induced by replacing the Krebs-bicarbonate solution by a potassium-Krebs solution (17 mM NaCl; 100 mM KCl; 25 mM NaHCO3; 1 mM KH2 PO4; 1.2 mM MgSO4; 2.5 mM CaCl2; 11.5 mM glucose; distilled water to 1000 ml). When the contractile response of the preparation had become reproducible, a given amount of a compound of the invention was introduced into the bath. Sixty minutes later, a new spasm was induced by potassium depolarization. The results obtained on the aorta used in the experiment were then expressed as a percentage of the maximum contractional effect before incubation with the test substance. By way of examples, the results which follow were obtained, the compounds of formula (1) being in the form of the base, hydrochloride or oxalate.

SMILES: COc1ccc(CCN(C)CC(O)COc2ccc(S(=O)(=O)c3c(C(C)C)cn4ccccc34)cc2)cc1OC (racemic) [Ex. 50, hydrochloride]
- anti-β effect ([1]; 0.1 mg/kg i.v.): +++
- anti-α effect [2]: +++

SMILES: CCCCN(CCCC)CCCOc1ccc(C(=O)c2c(CC)cn3ccccc23)cc1 [Compound F, reference compound]
- inhibition in vivo at 10 mg/kg ([1]; Canis lupus familiaris, iv, 10 mg/kg i.v., known compounds): 0%

SMILES: COc1ccc(CCN(C)CCCOc2ccc(S(=O)(=O)c3c(C(C)C)c4ccccc4n3C)cc2)cc1OC [Ex. 113, 1-methyl-3-isopropyl-2-[4-{3-[N-methyl-N-(3,4-dimethoxy-β-phenethyl)amino]propyloxy}benzenesulphonyl]indole acid oxalate]
- activity at 0.01 µM ([3]; 10^-8 M): 41.1%

SMILES: COc1ccc(CCN(C)CCCOc2ccc(S(=O)(=O)c3ccccc3C(C)C)cc2)cc1OC [Ex. 114, 2-isopropyl-1-[4-{3-[N-methyl-N-(3,4-dimethoxy-β-phenethyl)amino]propyloxy}benzenesulphonyl]benzene acid oxalate]
- activity at 1 µM [3]: 3.7%
- activity at 0.1 µM [3]: 21.7%
- activity at 0.01 µM ([3]; 10^-8 M): 59.3%
- activity at 0.001 µM ([3]; 10^-9 M): 93.3%

SMILES: CCCCN(CCCC)CCCOc1ccc(S(=O)(=O)c2ccccc2C(C)C)cc1 [Ex. 115, 2-Isopropyl-1-{4-[3-(di-n-butylamino)propyloxy]benzenesulphonyl}benzene acid oxalate]
- activity at 0.1 µM [3]: 43.2%
- activity at 0.001 µM ([3]; 10^-9 M): 89.1%

SMILES: CCc1ccccc1S(=O)(=O)c1ccc(OCCCN(C)CCc2ccc(OC)c(OC)c2)cc1 [Ex. 116, 2-Ethyl-1-[4-{3-[N-methyl-N-(3,4-dimethoxy-β-phenethyl)amino]propyloxy}benzenesulphonyl]benzene acid oxalate]
- activity at 0.1 µM [3]: 6%
- activity at 0.01 µM ([3]; 10^-8 M): 66.1%
- activity at 0.001 µM ([3]; 10^-9 M): 84.8%

SMILES: CCCCN(CCCC)CCCOc1ccc(S(=O)(=O)c2ccccc2CC)cc1 [Ex. 117, 2-Ethyl-1-{4-[3-(di-n-butylamino)propyloxy]benzenesulphonyl}benzene acid oxalate]
- activity at 1 µM [3]: 4.2%
- activity at 0.1 µM [3]: 43.4%
- activity at 0.01 µM ([3]; 10^-8 M): 85.1%

SMILES: CC(C)c1ccccc1S(=O)(=O)c1ccc(OCCCNC(C)(C)C)cc1 [Ex. 118, 2-isopropyl-1-[4-{3-(tert-butylamino)propyloxy}benzenesulphonyl]benzene acid oxalate]
- activity at 1 µM [3]: 2.7%
- activity at 0.1 µM [3]: 52.2%
- activity at 0.01 µM ([3]; 10^-8 M): 92.3%

SMILES: CCc1ccccc1S(=O)(=O)c1ccc(OCCCNC(C)(C)C)cc1 [Ex. 119, 2-ethyl-1-[4-{3-(tert-butylamino)propyloxy}benzenesulphonyl]benzene acid oxalate]
- activity at 1 µM [3]: 32%
- activity at 0.1 µM [3]: 83.3%

SMILES: CCc1sc2c(c1S(=O)(=O)c1ccc(OCCCN(C)CCc3ccc(OC)c(OC)c3)cc1)CN(Cc1ccccc1Cl)CC2 [Ex. 120, 5-(2-chloro-benzyl)-2-ethyl-3-[4-{3-[N-methyl-N-(3,4-dimethoxy-β-phenethyl)amino]propyloxy}benzenesulphonyl]-4,5,6,7-tetrahydrothieno[3,2-c]pyridine oxalate]
- activity at 1 µM [3]: 59.8%
- activity at 0.1 µM [3]: 68.7%
- activity at 0.01 µM ([3]; 10^-8 M): 91.4%

SMILES: CCCCN(CCCC)CCCOc1ccc(S(=O)(=O)c2c(CC)sc3c2CN(Cc2ccccc2Cl)CC3)cc1 [Ex. 121, 5-(2-chloro-benzyl)-2-ethyl-3-{4-[3-(di-n-butylamino)propyloxy]benzenesulphonyl}-4,5,6,7-tetrahydro-thieno[3,2-c]pyridine dioxalate]
- activity at 1 µM [3]: 66.2%
- activity at 0.1 µM [3]: 77.5%
- activity at 0.01 µM ([3]; 10^-8 M): 85.7%

SMILES: CC(C)c1cc2ccccn2c1S(=O)(=O)c1ccc(OCCCNC(C)(C)C)cc1 [Ex. 122, 2-isopropyl-3-{4-[3-tert-butylamino)propyloxy]benzenesulphonyl}indolizine hydrochloride]
- activity at 1 µM [3]: 5.4%
- activity at 0.1 µM [3]: 28.1%
- activity at 0.01 µM ([3]; 10^-8 M): 76.1%
- activity at 0.001 µM ([3]; 10^-9 M): 92.5%

SMILES: CCCCN(CCCC)CCCOc1ccc(S(=O)(=O)c2c(CC)cc3ccccn23)cc1 [Ex. 123, 2-ethyl-3-{4-[3-(di-n-butylamino)propyloxy]benzenesulphonyl}indolizine acid oxalate]
- activity at 1 µM [3]: 5.8%
- activity at 0.1 µM [3]: 16.8%
- activity at 0.01 µM ([3]; 10^-8 M): 54.6%
- activity at 0.001 µM ([3]; 10^-9 M): 75.3%

SMILES: CCCCN(CCCC)CCCOc1ccc(S(=O)(=O)c2ncsc2-c2ccccc2)cc1 [Ex. 124, 4-{4-[3-(di-n-butylamino)propyloxy]benzenesulphonyl}-5-phenyl-thiazole acid oxalate]
- activity at 1 µM [3]: 13.7%
- activity at 0.1 µM [3]: 66.7%
- activity at 0.01 µM ([3]; 10^-8 M): 90.6%

SMILES: CCCCN(CCCC)CCCOc1ccc(S(=O)(=O)c2cn[nH]c2C(C)C)cc1 [Ex. 125, 4-{4-[3-(di-n-butylamino)propyloxy]benzenesulphonyl}-5-isopropyl-pyrazole acid oxalate]
- activity at 1 µM [3]: 79.3%
- activity at 0.1 µM [3]: 90.4%
- % of the maximum contractional effect ([3]; head printed "10^-" (exponent missing; first of three columns before 10^-6 M)): 38.6%

SMILES: CCCCN(CCCC)CCCOc1ccc(S(=O)(=O)c2c(-c3ccccc3)noc2C(C)C)cc1 [Ex. 126, 4-{4-[3-(di-n-butylamino)propyloxy]benzenesulphonyl}-5-isopropyl-3-phenyl-isoxazole]
- activity at 1 µM [3]: 10%
- activity at 0.1 µM [3]: 38.7%
- activity at 0.01 µM ([3]; 10^-8 M): 75.8%

SMILES: CCCCN(CCCC)CCCOc1ccc(S(=O)(=O)c2ccc3ccccc3c2)cc1 [Ex. 127, 2-{4-[3-(di-n-butylamino)propyloxy]benzenesulphonyl}-naphthalene acid oxalate]
- activity at 1 µM [3]: 50.7%
- activity at 0.1 µM [3]: 86.2%

SMILES: COc1cc(CCN(C)CCCOc2ccc(S(=O)(=O)c3c(C(C)C)cn4ccccc34)cc2)cc(OC)c1OC [Ex. 134, 2-isopropyl-1-[4-{3-[N-methyl-N-(3,4,5-trimethoxy-β-phenethyl)amino]propyloxy}benzenesulphonyl]indolizine acid oxalate]
- activity at 0.1 µM [3]: 18.9%
- activity at 0.01 µM ([3]; 10^-8 M): 21.4%
- activity at 0.001 µM ([3]; 10^-9 M): 65.7%

SMILES: COc1cc(CCN(C)CCCOc2ccc(S(=O)(=O)c3c(C(C)C)cn4ccccc34)cc2)cc(C)c1OC.O=C(O)C(=O)O [Ex. 135, 2-isopropyl-1-[4-{3-[N-methyl-N-(3,4-dimethoxy-5-methyl-β-phenethyl)amino]propyloxy}benzenesulphonyl]indolizine acid oxalate]
- % of the maximum contractional effect ([3]; 10^-8 M, 0.01 µM): 21.1%
- % of the maximum contractional effect ([3]; 10^-9 M, 0.001 µM): 58.5%
- % of the maximum contractional effect ([3]; 10^-10 M, 0.0001 µM): 78.9%

SMILES: COc1cc(CCNCCCOc2ccc(S(=O)(=O)c3c(C(C)C)cn4ccccc34)cc2)cc(C)c1OC.O=C(O)C(=O)O [Ex. 139, 2-isopropyl-1-[4-{3-[N-(3,4-dimethoxy-5-methyl-β-phenethyl)amino]propyloxy}benzenesulphonyl]-indolizine acid oxalate]
- % of the maximum contractional effect ([3]; 10^-8 M, 0.01 µM): 49%
- % of the maximum contractional effect ([3]; 10^-9 M, 0.001 µM): 89%
